Measured values reported in patent US7179832B2, “Glycogen synthase kinase 3β inhibitor, composition and process for the preparation thereof” (Crystalgenomics, Inc., priority 2003, dated 2007).

Each compound was assayed against GSK-3β (Homo sapiens, UniProt P49841) (assay: Assay for GSK-3β inhibiting activity (32P-ATP, phospho-CREB peptide substrate, filter paper, CPM)). Details: GSK-3β inhibiting activity; 100 nM GSK-3β protein, 100 μM phospho-CREB peptide, 100 μM ATP, 30° C. for 1 hour; read-out: IC50.
Chain of GSK-3β (P49841 whole entry): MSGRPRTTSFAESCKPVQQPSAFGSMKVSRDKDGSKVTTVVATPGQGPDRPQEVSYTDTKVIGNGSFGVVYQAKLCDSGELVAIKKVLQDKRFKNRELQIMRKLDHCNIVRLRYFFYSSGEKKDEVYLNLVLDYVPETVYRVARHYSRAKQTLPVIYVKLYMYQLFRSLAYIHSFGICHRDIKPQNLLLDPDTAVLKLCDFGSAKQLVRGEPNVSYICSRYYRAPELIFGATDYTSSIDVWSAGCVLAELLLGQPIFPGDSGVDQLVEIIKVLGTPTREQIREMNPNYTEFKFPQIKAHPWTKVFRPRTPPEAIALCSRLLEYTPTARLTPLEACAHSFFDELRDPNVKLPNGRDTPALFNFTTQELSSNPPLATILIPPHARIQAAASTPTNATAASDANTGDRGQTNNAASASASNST
Assay type: biochemical
Experimental: Assay for GSK-3β inhibiting activity
First, PCR (polymerase chain reaction) was carried out using human DNA as a template as well as primers which were designed to correspond to the 3′- and 5′ ends of the polynucleotide coding human GSK-3β gene (Genbank Accession No.: L33801). The BamH1/XhoI fragment of the amplified PCR product thus obtained was inserted into the pGex vector between the BamH1 and XhoI sites, and the vector obtained was transformed into E. coli BL21(DE3). The transformed cells thus obtained was incubated in […] (1% Bacto-trypton, 0.5% yeast extract, 1% NaCl) containing ampicillin ([…]) until the optical density at 600 nm reached about 0.5. The cultured mixture was cooled to 18° C. and isopropyl β-D-thiogalacto-pyranoside (IPTG) was added thereto to a final concentration of 0.5 mM. After 16 hours, the resultant was centrifuged at 10,000×g for 10 min, the collected cells were suspended in a buffer solution (30 mM Tris-HCl (pH 7.5), 100 mM NaCl, 5% glycerol, 2 mM DTT) and the cells were disrupted using Sonic Dismembrator (Fisher, U.S.A.) in a ice bath. The resulting solution was centrifuged at 16,000 rpm for 30 minutes. […] The purified GSK-3β protein was diluted in a buffer solution (20 mM HEPES (pH 7.5), 5% glycerol, 2 mM DTT) to a final concentration of 50 mM NaCl and the resulting solution was subjected to mono S column chromatography (eluent: linear gradient from 0M to 1M NaCl buffer) using mono S column (Pharmacia Biotech, U.S.A.) equilibrated in the same buffer solution to obtain GSK-3β protein.
The reaction was stopped by adding 5 μl of 5% phosphoric acid to 25 μl of the resulting solution. The resulting mixture was centrifuged at 15,000 rpm for 10 min, 20 μl of the supernatant was added dropwise to Whatman p81 filter paper, and then, the resulting filter paper was washed with 0.5% phosphate buffer for 10 min. The filter paper was further washed 3 times and the enzymatic activity was determined by examining the extent of phospho-CREB peptide phosphorylation which is represented by the unit of count per minute (CPM), measured with a β-counter (Packard, USA).
The GSK-3β inhibiting activity was then calculated in accordance with the following equation:
[formula] wherein the blank represents a value obtained without the use of the enzyme and the compound of the present invention, and the control, in the absence of the compound of the present invention.
In the case of CN(C)c1ccc(CCNC(=O)c2ccc(O)c3[nH]c(-c4ccc(Cl)cc4)nc23)cc1 [Compound 93], the IC50 is reported as > 1 µM.
With Cc1ccc(S(=O)(=O)Nc2ccc(CCNC(=O)c3ccc(O)c4[nH]c(-c5ccc(F)c(Cl)c5)nc34)cc2)cc1 [Compound 160] the IC50 was > 1 µM.
O=C(NCCCn1ccnc1-c1ccccc1)c1ccc(O)c2[nH]c(-c3ccc(Cl)cc3)nc12 [Compound 172] was tested, and the IC50 was 0.8 µM.
In the case of COc1ccccc1CCNC(=O)c1ccc(O)c2[nH]c(-c3ccc(F)cc3)nc12 [Compound 138], the IC50 is reported as > 1 µM.
CS(=O)(=O)NCCc1ccc(NC(=O)c2ccc(O)c3[nH]c(-c4ccc(F)cc4)nc23)cc1 [Compound 33] was tested, and the IC50 was > 1 µM.
Compound Nc1ccc(CCNC(=O)c2ccc(O)c3[nH]c(-c4ccc(Cl)cc4)nc23)cc1 [Compound 90] has an IC50 of 0.13 µM.
Work on O=C(NCc1ccc([N+](=O)[O-])cc1)c1ccc(O)c2[nH]c(-c3ccccc3)nc12 [Compound 49] yielded an IC50 of 0.6 µM.
Cc1ccc(S(=O)(=O)Nc2ccc(CCNC(=O)c3ccc(O)c4[nH]c(-c5ccc(F)cc5F)nc34)cc2)cc1 [Compound 141] showed an IC50 of 0.043 µM.
In the case of O=C(NCCc1c[nH]cn1)c1ccc(O)c2[nH]c(-c3ccc(Cl)cc3)nc12 [Compound 83], the IC50 is reported as > 1 µM.
CN1CCN(CCNC(=O)c2ccc(O)c3[nH]c(-c4ccc(F)cc4)nc23)CC1 [Compound 118] was tested, and the IC50 was > 5 µM.
O=C(NC1CCC(O)CC1)c1ccc(O)c2[nH]c(-c3ccc(Cl)cc3Cl)nc12 (stereo not shown) [Compound 23] showed an IC50 of 0.68 µM.
For O=C(NCCc1ccc(O)cc1)c1ccc(O)c2[nH]c(-c3ccc(Cl)cc3Cl)nc12 [Compound 104], the IC50 was > 1 µM.
In the case of CCN(CC)CC(=O)Nc1ccc(CCNC(=O)c2ccc(O)c3[nH]c(-c4ccc(F)cc4Cl)nc23)cc1 [Compound 159], the IC50 is reported as 0.68 µM.
Nc1ccc(CNC(=O)c2ccc(O)c3[nH]c(-c4ccccc4)nc23)cc1 [Compound 50] showed an IC50 of 0.6 µM.
In the case of CS(=O)(=O)NCCc1ccc(NC(=O)c2ccc(O)c3[nH]c(-c4ccc(F)cc4Cl)nc23)cc1 [Compound 41], the IC50 is reported as > 1 µM.
Cc1nccn1CCCNC(=O)c1ccc(O)c2[nH]c(-c3ccc(F)cc3F)nc12 [Compound 195] gave an IC50 of 0.03 µM.
In the case of COc1cc(CCNC(=O)c2ccc(O)c3[nH]c(-c4ccc(Cl)cc4Cl)nc23)ccc1O [Compound 101], the IC50 is reported as > 1 µM.
With NCCNC(=O)c1ccc(O)c2[nH]c(-c3ccccc3)nc12 [Compound 61] the IC50 was > 1 µM.
Compound O=C(NCCN1CCOCC1)c1ccc(O)c2[nH]c(-c3ccc(F)cc3Cl)nc12 [Compound 147] has an IC50 of 0.21 µM.
O=C(NCCc1ccc([N+](=O)[O-])cc1)c1ccc(O)c2[nH]c(-c3ccccc3)nc12 [Compound 59] gave an IC50 of 0.16 µM.
Work on Cc1ccc(S(=O)(=O)NCCc2ccc(NC(=O)c3ccc(O)c4[nH]c(-c5ccc(Cl)cc5)nc34)cc2)cc1 [Compound 16] yielded an IC50 of 0.7 µM.
With O=C(NCCN1CCOCC1)c1ccc(O)c2[nH]c(-c3ccc(Cl)cc3)nc12 [Compound 78] the IC50 was > 1 µM.
COc1cc(CCNC(=O)c2ccc(O)c3[nH]c(-c4ccccc4)nc23)ccc1O [Compound 62] was tested, and the IC50 was > 1 µM.
For Cc1ccc(S(=O)(=O)Nc2ccc(CCNC(=O)c3ccc(O)c4[nH]c(-c5ccc(Cl)cc5)nc34)cc2)cc1 [Compound 76], the IC50 was 0.05 µM.
In the case of CS(=O)(=O)Nc1ccc(CCNC(=O)c2ccc(O)c3[nH]c(-c4ccc(F)cc4Cl)nc23)cc1 [Compound 143], the IC50 is reported as 0.002 µM.
With O=C(NCCc1ccccn1)c1ccc(O)c2[nH]c(-c3ccc(Cl)cc3)nc12 [Compound 82] the IC50 was > 1 µM.
For O=C(NCc1ccccc1)c1ccc(O)c2[nH]c(-c3ccc(Cl)cc3)nc12 [Compound 52], the IC50 was > 1 µM.
Cc1cn(CCCNC(=O)c2ccc(O)c3[nH]c(-c4ccc(F)c(Cl)c4)nc23)cn1 [Compound 202] gave an IC50 of 0.009 µM.
Cc1nccn1CCCNC(=O)c1ccc(O)c2[nH]c(-c3ccc(Cl)cc3Cl)nc12 [Compound 183] was tested, and the IC50 was 0.06 µM.
In the case of O=C(NCCCn1cnc(Cl)c1Cl)c1ccc(O)c2[nH]c(-c3ccc(Cl)cc3)nc12 [Compound 174], the IC50 is reported as 0.04 µM.
O=C(NC1CCC(O)CC1)c1ccc(O)c2[nH]c(-c3ccc(Cl)cc3)nc12 (stereo not shown) [Compound 15] gave an IC50 of 0.11 µM.
Work on O=C(NCCc1ccc(N2C(=O)c3ccccc3C2=O)cc1)c1ccc(O)c2[nH]c(-c3ccc(Cl)cc3)nc12 [Compound 79] yielded an IC50 of 0.12 µM.
O=C(NCCCN1CCOCC1)c1ccc(O)c2[nH]c(-c3ccc(Cl)cc3Cl)nc12 [Compound 179] was tested, and the IC50 was > 1 µM.
With O=C(NCCCn1cnc(Cl)c1Cl)c1ccc(O)c2[nH]c(-c3ccc(F)cc3Cl)nc12 [Compound 200] the IC50 was 0.002 µM.
Cc1ccc(S(=O)(=O)Nc2ccc(NCCNC(=O)c3ccc(O)c4[nH]c(-c5ccc(F)cc5)nc34)nc2)cc1 [Compound 124] was tested, and the IC50 was 0.07 µM.
O=C(NCCN1CCOCC1)c1ccc(O)c2[nH]c(-c3ccc(F)cc3)nc12 [Compound 119] was tested, and the IC50 was > 5 µM.
In the case of O=C(NCCc1ccccc1)c1ccc(O)c2[nH]c(-c3ccc(Cl)cc3)nc12 [Compound 71], the IC50 is reported as > 1 µM.
CN(C)c1ccc(CCNC(=O)c2ccc(O)c3[nH]c(-c4ccc(F)cc4)nc23)cc1 [Compound 135] was tested, and the IC50 was > 1 µM.
Compound CS(=O)(=O)Nc1ccc(CCNC(=O)c2ccc(O)c3nc(-c4ccc(Cl)cc4)[nH]c23)cc1 [Compound 75] has an IC50 of 0.009 µM.
O=C(NCCCn1cnc(Cl)c1Cl)c1ccc(O)c2[nH]c(-c3ccc(F)cc3F)nc12 [Compound 194] was tested, and the IC50 was 0.004 µM.
In the case of CN1CCN(CCNC(=O)c2ccc(O)c3[nH]c(-c4ccc(F)cc4Cl)nc23)CC1 [Compound 148], the IC50 is reported as > 1 µM.
In the case of O=C(NC1CCC(O)CC1)c1ccc(O)c2[nH]c(-c3ccccc3)nc12 (stereo not shown) [Compound 5], the IC50 is reported as 0.3 µM.
In the case of O=C(NCCNc1ccc([N+](=O)[O-])cn1)c1ccc(O)c2[nH]c(-c3ccc(Cl)cc3Cl)nc12 [Compound 110], the IC50 is reported as 0.28 µM.
In the case of NCCc1ccc(NC(=O)c2ccc(O)c3[nH]c(-c4ccccc4)nc23)cc1 [Compound 8], the IC50 is reported as > 1 µM.
In the case of Nc1ccc(NC(=O)c2ccc(O)c3[nH]c(-c4ccc(Cl)cc4Cl)nc23)cc1 [Compound 25], the IC50 is reported as > 1 µM.
Cc1ccc(S(=O)(=O)Nc2ccc(CCNC(=O)c3ccc(O)c4[nH]c(-c5ccccc5)nc34)cc2)cc1 [Compound 65] was tested, and the IC50 was 0.06 µM.
With Cc1ccc(S(=O)(=O)NCCc2ccc(NC(=O)c3ccc(O)c4[nH]c(-c5ccc(F)cc5)nc34)cc2)cc1 [Compound 34] the IC50 was > 1 µM.
For O=C(Nc1ccc(N2CCOCC2)cc1)c1ccc(O)c2[nH]c(-c3ccc(F)cc3)nc12 [Compound 36], the IC50 was > 1 µM.
Work on O=C(NCCc1ccc(O)cc1)c1ccc(O)c2[nH]c(-c3ccccc3)nc12 [Compound 58] yielded an IC50 of 0.67 µM.
Compound CS(=O)(=O)NCCc1ccc(NC(=O)c2ccc(O)c3[nH]c(-c4ccccc4)nc23)cc1 [Compound 10] has an IC50 of 0.04 µM.
O=C(Nc1ccc(CCNS(=O)(=O)c2cccs2)cc1)c1ccc(O)c2[nH]c(-c3ccc(Cl)cc3)nc12 [Compound 19] was tested, and the IC50 was > 1 µM.
With O=C(Nc1ccc(CO)cc1)c1ccc(O)c2[nH]c(-c3ccc(Cl)cc3Cl)nc12 [Compound 26] the IC50 was > 1 µM.
Compound CC(C)c1nccn1CCCNC(=O)c1ccc(O)c2[nH]c(-c3ccc(Cl)cc3Cl)nc12 [Compound 184] has an IC50 of 0.15 µM.
For Cc1ccc(S(=O)(=O)NCCc2ccc(NC(=O)c3ccc(O)c4[nH]c(-c5ccc(F)c(Cl)c5)nc34)cc2)cc1 [Compound 43], the IC50 was > 1 µM.
With O=C(NCCCN1CCCC1=O)c1ccc(O)c2[nH]c(-c3ccc(Cl)cc3)nc12 [Compound 169] the IC50 was > 1 µM.
Work on CS(=O)(=O)Nc1ccc(CCNC(=O)c2ccc(O)c3[nH]c(-c4ccccc4)nc23)cc1 [Compound 64] yielded an IC50 of 0.03 µM.
For CCc1nccn1CCCNC(=O)c1ccc(O)c2[nH]c(-c3ccc(F)cc3)nc12 [Compound 189], the IC50 was > 1 µM.
O=C(Nc1ccc(CCNS(=O)(=O)c2cccs2)cc1)c1ccc(O)c2[nH]c(-c3ccccc3)nc12 [Compound 12] showed an IC50 of 0.2 µM.
CS(=O)(=O)Nc1ccc(CCNC(=O)c2ccc(O)c3[nH]c(-c4ccc(F)c(Cl)c4)nc23)cc1 [Compound 161] was tested, and the IC50 was 0.09 µM.
CCN1CCN(CC(=O)Nc2ccc(CCNC(=O)c3ccc(O)c4[nH]c(-c5ccc(F)cc5Cl)nc34)cc2)CC1 [Compound 157] was tested, and the IC50 was 0.49 µM.
O=C(Nc1ccccc1)c1ccc(O)c2[nH]c(-c3ccc(Cl)cc3)nc12 [Compound 14] was tested, and the IC50 was > 1 µM.
With O=C(NCc1ccccc1)c1ccc(O)c2[nH]c(-c3ccc(Cl)cc3Cl)nc12 [Compound 55] the IC50 was > 1 µM.

Same assay, conditions: IC50 (μM)
With CS(=O)(=O)NCCc1ccc(NC(=O)c2ccc(O)c3[nH]c(-c4ccc(Cl)cc4Cl)nc23)cc1 [Compound 29] the IC50 was 0.08 µM.
With CCS(=O)(=O)Nc1ccc(CCNC(=O)c2ccc(O)c3nc(-c4ccc(Cl)cc4Cl)[nH]c23)cc1 [Compound 109] the IC50 was 0.03 µM.
